Source: patent EP0450065A1, “ANTIVIRAL AGENT” (priority 1988, dated 1990)
Read-outs that look alike come from different tables or passages of the source.

How the values were obtained:
[1] = system: herpes simplex virus type 1 (KOS strain); experiment: One-step growth of virus, plaque assay with vero cells; type: cell-based; conditions: for Intracellular virus Average / Intracellular virus Control ratio % / Intracellular virus Control ratio -logT/C / inhibition at 30 µg/mL / log reduction at 30 µg/mL: 24 hours; for inhibition at 30 µg/mL / log reduction at 30 µg/mL: Human alphaherpesvirus 1, Vero, 24 h; for inhibition at 30 µg/mL: read-out: Intracellular virus Control ratio %; for log reduction at 30 µg/mL: read-out: Intracellular virus Control ratio -logT/C
Protocol: Antiviral activity of Compound A and Compound B against one-step growth of herpes simplex virus type 1 (KOS strain) Cells grown in a monolayer, with a sample of a given compound diluted in a varying ratio added, were pretreated for 15 minutes. Then, the pretreated cells were infected with the herpes simplex virus type 1 (KOS strain) at an infecting ratio of 0.25 and left standing for 24 hours. At the end of the standing, the intracellular and extracellular amounts of virus were determined by the plaque assay with vero cells.

[2] = system: vero cells; conditions: african green monkey
Protocol: Compound A and Compound B were severally dissolved in distilled water in a concentration of 5 mg/ml, to prepare master solutions. Each of the master solutions was suitably diluted with an Eagle's MEM culture medium containing 10% fetal bovine serum. A 0.2-ml portion of the resultant dilution product was placed on vero cells cultured in advance on a microplate and grown in a monolayer, cultured further thereon at 37°C for three to five days. Samples taken severally after three days'and five days'culture were placed under a microscope and tested for cytopathogenic effect brought about by a chemical agent.

[3] = system: herpes simplex virus type 1 (KOS strain); experiment: Control of CPE (cytopathic effect) manifestation in vero cells; type: cell-based; conditions: HSV-1 (KOS), Example 7; for Cytopathic effect [CPE] (3days) △CPE / Cytopathic effect [CPE] (5days) △CPE: difference from control
Protocol: (§1) Vero cells cultured and grown in a monolayer on microplates to test for cytopathic effect due to viral infection, with solutions of Compound A diluted to varying ratios and solutions of virus diluted to varying ratios added severally thereto in a volume of 0.1 ml, were cultured under the conditions of 5% CO₂ and 37°C and were examined for CPE manifestation under a microscope. The observation was continued for five to six days.
(§2) The degree of CPE brought about by viral infection was rated on the five-point scale, wherein 3 stands for CPE observed on not less than 75% of cultured cells, 2 for CPE observed on 50% of cultured cells, 1 for CPE observed on 25% of cultured cells, 0.5 for occurrence of one to two extremely minute DPE spots, and 0 for perfect absence of recognizable CPE. The CPE scores obtained at the four holes in each microplate were averaged and the difference of the average from the average obtained in the control (omitting the treatment with a chemical) was reported as ΔCPE.
(§3) Antiviral activity of Compound A and Compound B against herpes simplex virus type 1 (KOS strain) The test was carried out by following the procedure of Example 3.

[4] = system: vero cells; conditions: control ratio on propagation of vero cells, 72hr
Protocol: Samples of the control group contained 0.1 ml of a culture solution (an Eagle's MEM culture medium containing 10% fetal bovine serum).
The test was conducted by using three culture tubes per group, culturing the cells in the tubes at 37°C for three days, and taking count of live cells by the dye-exclusion method.

[5] = system: herpes simplex virus type 1 (KOS strain); experiment: 50% Tissue culture infective dose (TCID50), Read-Munch method, negative logarithm of virus dilution; type: cell-based; set-up: key to Cytopathic effect [CPE] (5days) TCID50 / Cytopathic effect [CPE] (3days) TCID50: TCID50 as negative log of maximum virus dilution ratio; key to Cytopathic effect [CPE] (5days) △TCID50 / Cytopathic effect [CPE] (3days) △TCID50: difference from control TCID50, in negative log of virus dilution; conditions: HSV-1 (KOS), Example 7; for Cytopathic effect [CPE] (3days) △TCID50 / Cytopathic effect [CPE] (5days) △TCID50 / log reduction at 30 µg/mL: difference from control
Protocol: (§4) The amount of virus infecting 50% of tissues (TCID₅₀) was determined by the Read-Munch method and expressed in negative logarithm of the maximum radio of dilution of virus. The difference of the amount thus determined from the amount found in the control (omitting the treatment with a chemical) was reported as ΔTCID₅₀. A sample whose ΔCPE's found on the last day of observation and on each of the days spent for the observation exceeded 1.0 was evaluated as effective.
as §3

[6] = system: herpes simplex virus type 2 (169 strain); experiment: as above; type: cell-based; set-up: key to Cytopathic effect [CPE] (5days) TCID50 / Cytopathic effect [CPE] (3days) TCID50 / Cytopathic effect [CPE] (6days) TCID50: negative log of maximum virus dilution infecting 50% of tissues; conditions: 20 μg/ml, HSV-2 (169), Example 6
Protocol: as §4
(§5) In vitro antiviral activity of Compound A against herpes simplex virus type 2 (169 strain) The test was carried out by following the procedure of Example 3.

[7] = system: herpes simplex virus type 1 (HF strain); experiment: as above; type: cell-based
Protocol: (§6) In vitro antiviral activity of Compound A against herpes simplex virus type 1 (HF strain) Compound A was tested for antiviral effect by the following two methods.
as §4
(§7) In vitro antiviral effect of Compound A against herpes simplex virus type 1 (HF strain) The test was carried out by following the procedure of Example 3.

[8] = system: herpes simplex virus type 2 (169 strain); experiment: Control of CPE (cytopathic effect) manifestation in vero cells; type: cell-based; set-up: key to Cytopathic effect [CPE] (3days) Average / Cytopathic effect [CPE] (5days) Average / Cytopathic effect [CPE] (6days) Average: CPE score 0-3: 3 = ≥75% cells, 2 = 50%, 1 = 25%, 0 = none; key to Cytopathic effect [CPE] (3days) △CPE / Cytopathic effect [CPE] (5days) △CPE / Cytopathic effect [CPE] (6days) △CPE: difference of mean CPE score (0-3 scale) from untreated control; conditions: 20 μg/ml, HSV-2 (169), Example 6
Protocol: as §1, §2, §5

[9] = system: herpes simplex virus type 1 (HF strain); experiment: as above; type: cell-based; set-up: key to Cytopathic effect [CPE] (3days) Average / Cytopathic effect [CPE] (5days) Average / Cytopathic effect [CPE] (6days) Average: CPE score: 0 none, 0.5 minute spots, 1 = 25%, 2 = 50%, 3 = ≥75% cells; key to Cytopathic effect [CPE] (3days) △CPE / Cytopathic effect [CPE] (5days) △CPE / Cytopathic effect [CPE] (3days) ΔCPE / Cytopathic effect [CPE] (6days) ΔCPE: ΔCPE = difference of average CPE score (0–3 scale) from control; conditions: 20 μg/ml, HSV-1 (HF strain), Example 5
Protocol: as §6, §1, §2, §7

[10] = 20 μg/ml, HSV-1 (HF strain), Example 5

## K₇PW₁₀Ti₂O₄₀.6H₂O [Compound B]
[1]; 50 μg/ml, extracellular virus
  Intracellular virus Average: 5.83×10^5 /dish
  Intracellular virus Control ratio %: 98.1%
  Intracellular virus Control ratio -logT/C: 1.711
[1]; 50 μg/ml
  Intracellular virus Average: 6.00×10^5 /dish
  Intracellular virus Control ratio %: 99.8%
  Intracellular virus Control ratio -logT/C: 2.831
[1]; 100 μg/ml, extracellular virus
  Intracellular virus Average: 2.10×10^5 /dish
  Intracellular virus Control ratio %: 99.3%
  Intracellular virus Control ratio -logT/C: 2.155
[1]; 100 μg/ml
  Intracellular virus Average: 1.12×10^5 /dish
  Intracellular virus Control ratio -logT/C: 3.560
[1]; 100 μg/ml, 1440 min
  Intracellular virus Control ratio %: >99.9%
[1]; 200 μg/ml, extracellular virus
  Intracellular virus Average: 4.95×10^4 /dish
  Intracellular virus Control ratio %: 99.8%
  Intracellular virus Control ratio -logT/C: 2.783
[1]; 200 μg/ml
  Intracellular virus Average: 1.07×10^3 /dish
  Intracellular virus Control ratio -logT/C: 5.580
[1]; 200 μg/ml, 1440 min
  Intracellular virus Control ratio %: >99.9%
[1]; concentration not given, 1440 min
  control of the intracellular and extracellular viruses in the one-step growth: not less than 99.9%
[2]
  maximum nontoxic doses (MNTD): > 200 µg/mL
[2]; 72 h
  Cellular toxity (3 days) Maximum nontoxic does: >200 µg/mL
[2]; 120 h
  Cellular toxity (5 days) Maximum nontoxic does: >200 µg/mL
[3]; 100 μg/ml
  Cytopathic effect [CPE] (3days) Average: 0
  Cytopathic effect [CPE] (5days) Average: 0
  Cytopathic effect [CPE] (3days) △CPE: 2.0
  Cytopathic effect [CPE] (5days) △CPE: 3.0
[3]; 200 μg/ml
  Cytopathic effect [CPE] (3days) Average: 0
  Cytopathic effect [CPE] (5days) Average: 0
  Cytopathic effect [CPE] (3days) △CPE: 2.0
  Cytopathic effect [CPE] (5days) △CPE: 3.0
[4]; 100 μg/ml
  Ratio (%): absolutely no effect
[4]; 200 μg/ml
  Ratio (%): absolutely no effect
[5]; 100 μg/ml
  Cytopathic effect [CPE] (3days) TCID50: 3.5
  Cytopathic effect [CPE] (5days) TCID50: 3.5
  Cytopathic effect [CPE] (3days) △TCID50: 2.0
  Cytopathic effect [CPE] (5days) △TCID50: 2.5
[5]; 200 μg/ml
  Cytopathic effect [CPE] (3days) TCID50: 3.5
  Cytopathic effect [CPE] (5days) TCID50: 3.5
  Cytopathic effect [CPE] (3days) △TCID50: 2.0
  Cytopathic effect [CPE] (5days) △TCID50: 2.5

## O=c1[nH]c(=O)n([C@H]2C[C@H](O)[C@@H](CO)O2)cc1I [IDU, reference compound]
[1]; 30 μg/ml, extracellular virus
  Intracellular virus Average: 7.50×10^3 /dish
  inhibition at 30 µg/mL: > 99.9%
  log reduction at 30 µg/mL: 3.6
[1]; 30 μg/ml
  Intracellular virus Average: 1.00×10^6 /dish
  inhibition at 30 µg/mL: 99.8%
  log reduction at 30 µg/mL: 2.61
[6]
  Cytopathic effect [CPE] (3days) TCID50: 5.3
  Cytopathic effect [CPE] (6days) TCID50: 5.5
[6]; Human alphaherpesvirus 2, 72 h, difference from control, read-out: Cytopathic effect [CPE] (3days) △TCID50
  log reduction at 20 µg/mL: 1.4
[7]; [10]
  Cytopathic effect [CPE] (3days) TCID50: 6.3
  Cytopathic effect [CPE] (6days) TCID50: 6.5
[7]; Human alphaherpesvirus 1, 72 h, read-out: Cytopathic effect [CPE] (3days) ΔTCID50
  log reduction at 20 µg/mL: 0
[7]; Human alphaherpesvirus 1, 144 h, read-out: Cytopathic effect [CPE] (6days) ΔTCID50
  log reduction at 20 µg/mL: -0.2
[8]
  Cytopathic effect [CPE] (3days) Average: 0.75
  Cytopathic effect [CPE] (6days) Average: 1.25
[8]; difference from control
  Cytopathic effect [CPE] (3days) △CPE: 1.75
  Cytopathic effect [CPE] (6days) △CPE: 1.75
[3]; 30 μg/ml
  Cytopathic effect [CPE] (3days) Average: 1.0
  Cytopathic effect [CPE] (5days) Average: 2.0
  Cytopathic effect [CPE] (3days) △CPE: 1.0
  Cytopathic effect [CPE] (5days) △CPE: 1.0
[9]
  Cytopathic effect [CPE] (3days) Average: 2.25
  Cytopathic effect [CPE] (6days) Average: 3.0
[9]; difference from control
  Cytopathic effect [CPE] (3days) ΔCPE: 0.5
  Cytopathic effect [CPE] (6days) ΔCPE: 0
[5]; 30 μg/ml
  Cytopathic effect [CPE] (3days) TCID50: 5.3
  Cytopathic effect [CPE] (5days) TCID50: 6.0
[5]; Human alphaherpesvirus 1, 72 h, 30 μg/ml, read-out: Cytopathic effect [CPE] (3days) △TCID50
  log reduction at 30 µg/mL: 0.2
[5]; Human alphaherpesvirus 1, 120 h, 30 μg/ml, read-out: Cytopathic effect [CPE] (5days) △TCID50
  log reduction at 30 µg/mL: 0.3
